According to patent publication US9737582B2, “Method for improving memory of a subject using a composition comprising Cistanche and Ginkgo extracts” (Access Business Group International LLC, priority 2014, dated 2017):

B1: NGF: mouse nerve growth factor applied acutely to cultures (protein, UniProt P01139 122-241, looked up)
Beta-nerve growth factor: SSTHPVFHMGEFSVCDSVSVWVGDKTTATDIKGKEVTVLAEVNINNSVFRQYFFETKCRASNPVESGCRGIDSKHWNSYCTTTHTFVKALTTDEKQAAWRFIRIDTACVCVLSRKATRRG
modifications: Beta-nerve growth factor
notes: mouse nerve growth factor applied acutely to cultures

Columns and labels:
Assay type in all cases: cell-based, murine
hippocampal cultures [1] = experiment: Acute NGF concentration-response on chronically treated hippocampal cultures, MEA neurochips; details: acute mNGF 3 ng/ml to 1 μg/ml
Method: FIG. 8 illustrates examples of the study to assess chronic effects of Cistanche tubulosa extract on maturation of a neuronal network. Hippocampal cultures on MEA neurochips were treated with 30 μg/ml Cistanche, 300 nM Donepezil, or a dimethyl sulfoxide (“DMSO”) vehicle control. At 28 days after repeated dose chronic treatment, spontaneous activity was measured, followed by recording of activity to acute NGF concentration-response curve.
FIG. 19A is a first portion of a heat map and FIG. 19B is a second portion of the heat map. The heat map illustrates concentration dependent effects of acute mouse nerve growth factor (“mNGF”) on network activity of chronically treated hippocampal cultures with the mixtures or components described above for FIG. 18.
The heat map illustrates significant changes on the 60 most representative parameters for each mNGF concentration, from 3 ng/ml to 1 μg/ml. The color code changes in activity parameters according to the percent changes (100:no change), with yellow/red=an increase and green/blue=a decrease.

hippocampal cultures [2] = experiment: Chronic treatment of hippocampal cultures on MEA neurochips, spontaneous network activity; details: chronic treatment 4-28 days in vitro; 30 μg/ml Cistanche, 300 nM Donepezil
Text: Microelectrode array (MEA) neurochips were utilized to analyze various examples. Specifically, use of MEA neurochips enabled stimulation and recording of bioelectricity with high spatial and temporal resolution, to glean neuroactivity of the Cistanche and Ginkgo extracts, alone and in combination, and with neuronal growth factors.
MEA neurochips are available from NeuroProof GmbH of Rostock, Germany. The electrophysiological properties of compounds can be evaluated using their ability for induction of activity changes in neuronal networks grown on MEA neurochips. Routine monitoring of internal dynamics of mammalian neuronal networks is possible. […]
FIG. 8 illustrates examples of the study to assess chronic effects of Cistanche tubulosa extract on maturation of a neuronal network. […] At 28 days after repeated dose chronic treatment, spontaneous activity was measured, followed by recording of activity to acute NGF concentration-response curve. […]
Multichannel recording delivered single neuron spike data and spike identification and separation were accomplished with a template-matching algorithm in real time, to allow the extracellular recording of action potentials from 256 neurons simultaneously. The action potentials or “spikes” were recorded in spike trains and clustered in bursts, which can be quantitatively described via direct spike train analysis. […]

[3] = tested on: hippocampal network morphology; experiment: Immuno-histochemical analysis of recorded cultures, semi-automatic quantitative image analysis; details: chronic 4-28 days in vitro; 30 μg/ml Cistanche, 300 nM Donepezil
Text: FIG. 5A is an example image associated with semi-automatic quantification of neurons/image, neurites/image, synapses/image, and synapse/neurite ratio. The image depicts color-merge of synapse (green), neurites (red), nuclei (blue), bar=50 μm.
FIG. 5B is an example image corresponding to synapse channel: color-inverted and analyzed for synapse particles (red labeled after automatic threshold, particle separation and size filter).
FIG. 9 illustrates examples of the study directed at immuno-histochemical analysis. Recorded cultures are further analyzed by immunocytochemistry, fluorescence microscopy and semi-automatic quantitative image analysis. Images are quantified per image for: cell number, neuronal number, neurite number, synapse number, % neurons, neurites per neuron, and synapses per neuron. […]
Recorded cultures were further analyzed by immunocytochemistry, fluorescent microscopy and quantitative image analysis for morphological findings. Semi-automatic quantification (mean±SEM, student's t-test: *p≦0.05; n=3 with 10-20 images each.)
FIG. 21 are images associated with semi-automatic quantification of total cells/field, percentage of neurons, neuritic density, and synaptic number/field. […] The rightmost images correspond to synapse channel: color inverted and analyzed for synapse particles.

Molecule	effect of chronic treatment on the acute NGF response (hippocampal cultures [1]; chronic 4-28 days in vitro, 30 μg/ml Cistanche, 300 nM Donepezil, mixture at 10 and 30 μg/ml)	spontaneous network activity (hippocampal cultures [2])	global synapse number [3]	effect of acute NGF alone on general activity (hippocampal cultures [1]; vehicle-treated cultures)
COc1cc2c(cc1OC)C(=O)C(CC1CCN(Cc3ccccc3)CC1)C2 (stereo not shown) [Donepezil]	compensated the inhibitory acute NGF response	enhanced the spontaneous network activity	increase	–
B1	–	–	–	inhibition of general activity
